Assay results from PMC7531004, “Discovery of gramicidin A analogues with altered activities by multidimensional screening of a one-bead-one-compound library” (Nature Communications, 2020).
Where a SMILES comes first, the peptide text is derived from it. [ ]: non-standard residue; d: D form. The star is where a group is joined. NHCH2CH2OH = OCCN*; For = O=C*

What was measured:
[1] = H+/Na+ transport assay of bead-derived peptides (one-point); assay type: biochemical; parameters: key: relative activity; mean of two control wells = 1.00; conditions: bead-derived peptide solution, EYPC/EYPG LUVs;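 note: relative to parent gramicidin A activity set to 1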
In short: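 Miniaturized 96-well format. LUVs with entrapped pyranine (1.0 mM) were exposed to peptide for 30 min at RT. Intensities were expressed relative to full lysis by Triton X-100 and no treatment, with control-well mean = 1.00.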

[2] = cell viability/%
In short: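 First, library peptide stocks are diluted 250-fold in RPMI1640 with 10% heat-inactivated FBS. Next, they are mixed with P388 cells to give 1 × 10^4 cells/mL and incubated 92 h at 37 °C, 5% CO2. Finally, viability (%) is scored by WST-1 absorbance at 415 nm.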

[3] = tested on: Streptococcus pyogenes SSI-9; test: Antibacterial activity assay of bead-derived peptides (three concentrations); assay type: cell-based; parameters: key: +++: inhibition by the 640-fold diluted peptide solution; ++: inhibition by the 160-fold diluted solution; +: inhibition by the 40-fold diluted solution; -: no inhibition; conditions: S. pyogenes, bead-derived peptide solution, three concentrations
In short: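 Three stock dilutions per peptide (none, 4-fold, 16-fold in DMSO) are screened in 96-well format. The medium is blood-supplemented cation-adjusted MHB, inoculated with 2 × 10^5 CFU S. pyogenes SSI-9. Growth is read as cell precipitation at 18 h, 37 °C.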

SMILES | H+/Na+ transport activity normalized against the value of 1 (1.00) [1] | viability [2] | antibacterial activity [3]
CC(C)C[C@@H](NC(=O)[C@H](Cc1c[nH]c2ccccc12)NC(=O)[C@@H](CC(C)C)NC(=O)[C@@H](NC(=O)[C@H](NC(=O)[C@H](C)NC(=O)[C@H](NC(=O)[C@H](C)NC(=O)CNC(=O)[C@@H](NC=O)C(C)C)[C@H](C)O)C(C)C)C(C)C)C(=O)N[C@@H](Cc1c[nH]c2ccccc12)C(=O)N[C@@H](C(=O)N[C@@H](Cc1c[nH]c2ccccc12)C(=O)N[C@@H](C(=O)N[C@@H](Cc1c[nH]c2ccccc12)C(=O)NCCO)C(C)C)C(C)C [compound 5563] (For-VGA[dT]A[dV]V[dL]W[dL]W[dV]W[dV]W-NHCH2CH2OH) | 1.08 | 100% | -
CC(C)C[C@@H](NC(=O)[C@H](C)NC(=O)[C@H](NC(=O)[C@H](C)NC(=O)CNC(=O)[C@@H](NC=O)C(C)C)C(C)C)C(=O)N[C@H](C(=O)N[C@H](CC(C)C)C(=O)N[C@@H](Cc1c[nH]c2ccccc12)C(=O)N[C@@H](C(=O)N[C@@H](Cc1c[nH]c2ccccc12)C(=O)N[C@H](CC(C)C)C(=O)N[C@@H](Cc1c[nH]c2ccccc12)C(=O)N[C@@H](C(=O)N[C@@H](Cc1c[nH]c2ccccc12)C(=O)NCCO)C(C)C)[C@H](C)O)C(C)C [compound 3260] (For-VGA[dV]A[dL]V[dL]W[dT]W[dL]W[dV]W-NHCH2CH2OH) | 1.10 | 100% | +
CC(C)C[C@@H](NC(=O)[C@H](Cc1c[nH]c2ccccc12)NC(=O)[C@@H](CC(C)C)NC(=O)[C@@H](NC(=O)[C@H](NC(=O)[C@H](C)NC(=O)[C@H](NC(=O)[C@H](C)NC(=O)CNC(=O)[C@@H](NC=O)C(C)C)C(C)C)C(C)C)C(C)C)C(=O)N[C@@H](Cc1c[nH]c2ccccc12)C(=O)N[C@H](CC(C)C)C(=O)N[C@@H](Cc1c[nH]c2ccccc12)C(=O)N[C@@H](C(=O)N[C@@H](Cc1c[nH]c2ccccc12)C(=O)NCCO)C(C)C [compound 511] (For-VGA[dV]A[dV]V[dL]W[dL]W[dL]W[dV]W-NHCH2CH2OH) | 1.01 | 1.8% | ++
CC(C)C[C@@H](NC(=O)[C@H](C)NC(=O)CNC(=O)[C@@H](NC=O)C(C)C)C(=O)N[C@@H](C)C(=O)N[C@@H](C(=O)N[C@H](C(=O)N[C@@H](C(=O)N[C@@H](Cc1c[nH]c2ccccc12)C(=O)N[C@H](CC(C)C)C(=O)N[C@@H](Cc1c[nH]c2ccccc12)C(=O)N[C@H](CC(C)C)C(=O)N[C@@H](Cc1c[nH]c2ccccc12)C(=O)N[C@H](CC(C)C)C(=O)N[C@@H](Cc1c[nH]c2ccccc12)C(=O)NCCO)C(C)C)C(C)C)[C@H](C)O [compound 9098] (For-VGA[dL]A[dT]V[dV]W[dL]W[dL]W[dL]W-NHCH2CH2OH) | 1.13 | 51% | -
CC(C)C[C@@H](NC(=O)[C@H](C)NC(=O)CNC(=O)[C@@H](NC=O)C(C)C)C(=O)N[C@@H](C)C(=O)N[C@@H](C(=O)N[C@H](C(=O)N[C@@H](C(=O)N[C@@H](Cc1c[nH]c2ccccc12)C(=O)N[C@@H](C(=O)N[C@@H](Cc1c[nH]c2ccccc12)C(=O)N[C@H](CC(C)C)C(=O)N[C@@H](Cc1c[nH]c2ccccc12)C(=O)N[C@H](CC(C)C)C(=O)N[C@@H](Cc1c[nH]c2ccccc12)C(=O)NCCO)[C@H](C)O)C(C)C)C(C)C)[C@H](C)O [compound 1592] (For-VGA[dL]A[dT]V[dV]W[dT]W[dL]W[dL]W-NHCH2CH2OH) | 1.03 | 100% | -
CC(C)[C@H](NC=O)C(=O)NCC(=O)N[C@@H](C)C(=O)N[C@@H](C(=O)N[C@@H](C)C(=O)N[C@@H](C(=O)N[C@H](C(=O)N[C@@H](C(=O)N[C@@H](Cc1c[nH]c2ccccc12)C(=O)N[C@@H](C(=O)N[C@@H](Cc1c[nH]c2ccccc12)C(=O)N[C@@H](C(=O)N[C@@H](Cc1c[nH]c2ccccc12)C(=O)N[C@@H](C(=O)N[C@@H](Cc1c[nH]c2ccccc12)C(=O)NCCO)[C@H](C)O)C(C)C)C(C)C)C(C)C)C(C)C)C(C)C)C(C)C [compound 1983] (For-VGA[dV]A[dV]V[dV]W[dV]W[dV]W[dT]W-NHCH2CH2OH) | 1.00 | 100% | -
CC(C)C[C@@H](NC(=O)[C@H](Cc1c[nH]c2ccccc12)NC(=O)[C@H](NC(=O)[C@H](Cc1c[nH]c2ccccc12)NC(=O)[C@H](NC(=O)[C@H](Cc1c[nH]c2ccccc12)NC(=O)[C@H](NC(=O)[C@@H](NC(=O)[C@H](NC(=O)[C@H](C)NC(=O)[C@H](NC(=O)[C@H](C)NC(=O)CNC(=O)[C@@H](NC=O)C(C)C)[C@H](C)O)C(C)C)C(C)C)C(C)C)C(C)C)C(C)C)C(=O)N[C@@H](Cc1c[nH]c2ccccc12)C(=O)NCCO [compound 6606] (For-VGA[dT]A[dV]V[dV]W[dV]W[dV]W[dL]W-NHCH2CH2OH) | 1.03 | 100% | -
CNC(=O)C[C@@H](NC(=O)[C@H](Cc1c[nH]c2ccccc12)NC(=O)[C@H](NC(=O)[C@@H](NC(=O)[C@@H](CC(C)C)NC(=O)[C@H](C)NC(=O)[C@H](NC(=O)[C@H](C)NC(=O)CNC(=O)[C@@H](NC=O)C(C)C)C(C)C)C(C)C)C(C)C)C(=O)N[C@@H](Cc1c[nH]c2ccccc12)C(=O)N[C@H](CC(C)C)C(=O)N[C@@H](Cc1c[nH]c2ccccc12)C(=O)N[C@H](CC(C)C)C(=O)N[C@@H](Cc1c[nH]c2ccccc12)C(=O)NCCO [compound 5838] (For-VGA[dV]A[dL]V[dV]W[dD](NHMe)W[dL]W[dL]W-NHCH2CH2OH) | 1.12 | 100% | -
CNC(=O)C[C@@H](NC(=O)[C@H](Cc1c[nH]c2ccccc12)NC(=O)[C@H](NC(=O)[C@H](Cc1c[nH]c2ccccc12)NC(=O)[C@H](NC(=O)[C@H](Cc1c[nH]c2ccccc12)NC(=O)[C@@H](CC(C)C)NC(=O)[C@@H](NC(=O)[C@@H](CC(C)C)NC(=O)[C@H](C)NC(=O)[C@@H](CC(C)C)NC(=O)[C@H](C)NC(=O)CNC(=O)[C@@H](NC=O)C(C)C)C(C)C)C(C)C)C(C)C)C(=O)N[C@@H](Cc1c[nH]c2ccccc12)C(=O)NCCO [compound 6265] (For-VGA[dL]A[dL]V[dL]W[dV]W[dV]W[dD](NHMe)W-NHCH2CH2OH) | 1.03 | 79.9% | -
CC(C)C[C@@H](NC(=O)[C@H](C)NC(=O)CNC(=O)[C@@H](NC=O)C(C)C)C(=O)N[C@@H](C)C(=O)N[C@H](CC(C)C)C(=O)N[C@H](C(=O)N[C@H](CC(C)C)C(=O)N[C@@H](Cc1c[nH]c2ccccc12)C(=O)N[C@H](CC(C)C)C(=O)N[C@@H](Cc1c[nH]c2ccccc12)C(=O)N[C@@H](C(=O)N[C@@H](Cc1c[nH]c2ccccc12)C(=O)N[C@@H](C(=O)N[C@@H](Cc1c[nH]c2ccccc12)C(=O)NCCO)[C@H](C)O)[C@H](C)O)C(C)C [compound 7156] (For-VGA[dL]A[dL]V[dL]W[dL]W[dT]W[dT]W-NHCH2CH2OH) | 1.08 | 100% | -
CC(C)C[C@@H](NC(=O)[C@H](C)NC(=O)CNC(=O)[C@@H](NC=O)C(C)C)C(=O)N[C@@H](C)C(=O)N[C@H](CC(C)C)C(=O)N[C@H](C(=O)N[C@H](CC(C)C)C(=O)N[C@@H](Cc1c[nH]c2ccccc12)C(=O)N[C@@H](C(=O)N[C@@H](Cc1c[nH]c2ccccc12)C(=O)N[C@H](CC(C)C)C(=O)N[C@@H](Cc1c[nH]c2ccccc12)C(=O)N[C@@H](C(=O)N[C@@H](Cc1c[nH]c2ccccc12)C(=O)NCCO)[C@H](C)O)C(C)C)C(C)C [compound 770] (For-VGA[dL]A[dL]V[dL]W[dV]W[dL]W[dT]W-NHCH2CH2OH) | 1.11 | 100% | -
CC(C)C[C@@H](NC(=O)[C@H](C)NC(=O)CNC(=O)[C@@H](NC=O)C(C)C)C(=O)N[C@@H](C)C(=O)N[C@@H](C(=O)N[C@H](C(=O)N[C@H](CC(C)C)C(=O)N[C@@H](Cc1c[nH]c2ccccc12)C(=O)N[C@@H](C(=O)N[C@@H](Cc1c[nH]c2ccccc12)C(=O)N[C@H](CC(C)C)C(=O)N[C@@H](Cc1c[nH]c2ccccc12)C(=O)N[C@@H](C(=O)N[C@@H](Cc1c[nH]c2ccccc12)C(=O)NCCO)[C@H](C)O)[C@H](C)O)C(C)C)C(C)C [compound 4868] (For-VGA[dL]A[dV]V[dL]W[dT]W[dL]W[dT]W-NHCH2CH2OH) | 1.06 | 100% | -
CC(C)C[C@@H](NC(=O)[C@H](C)NC(=O)CNC(=O)[C@@H](NC=O)C(C)C)C(=O)N[C@@H](C)C(=O)N[C@@H](C(=O)N[C@H](C(=O)N[C@H](CC(C)C)C(=O)N[C@@H](Cc1c[nH]c2ccccc12)C(=O)N[C@H](CC(C)C)C(=O)N[C@@H](Cc1c[nH]c2ccccc12)C(=O)N[C@H](CC(C)C)C(=O)N[C@@H](Cc1c[nH]c2ccccc12)C(=O)N[C@@H](C(=O)N[C@@H](Cc1c[nH]c2ccccc12)C(=O)NCCO)[C@H](C)O)C(C)C)C(C)C [compound 1975] (For-VGA[dL]A[dV]V[dL]W[dL]W[dL]W[dT]W-NHCH2CH2OH) | 1.04 | 100% | +
